Laboratory results taken from DBAASP.
In brackets after ≈: the same amount, converted by molar mass.

Tests used:
Test in all cases: ≥ marks a high value that may be exact or a test limit, other limits are often not marked, values filed in µg/mL are converted to µM
[1] = system: Enterobacter cloacae
[2] = system: Pseudomonas aeruginosa
[3] = system: Serratia marcescens
[4] = system: Escherichia coli ATCC 35218
[5] = system: Klebsiella aerogenes
[6] = system: Klebsiella pneumoniae
[7] = system: Salmonella enterica
[8] = system: Staphylococcus aureus
[9] = system: Staphylococcus saprophyticus
[10] = system: Klebsiella oxytoca
[11] = system: Proteus mirabilis
[12] = system: Staphylococcus haemolyticus
[13] = system: Acinetobacter baumannii
[14] = system: Staphylococcus epidermidis
[15] = system: Pseudomonas aeruginosa Ps4
[16] = system: Pseudomonas aeruginosa PA14
[17] = system: Candida krusei ATCC 40147
[18] = system: Candida albicans CA1
[19] = system: Candida albicans ATCC 90029
[20] = system: Klebsiella pneumoniae KP1
[21] = system: Candida parapsilosis ATCC 90018
[22] = system: Escherichia coli EC16
[23] = system: Escherichia coli EC18
[24] = system: Candida tropicalis ATCC 750
[25] = system: Acinetobacter baumannii AB1
[26] = system: Escherichia coli
[27] = system: Pseudomonas aeruginosa PAO1
[28] = system: Pseudomonas aeruginosa ATCC 27853
[29] = system: Escherichia coli CFT073
[30] = system: Escherichia coli ATCC 25922
[31] = system: Escherichia coli UTI89
[32] = system: Pseudomonas aeruginosa 891
[33] = system: Staphylococcus aureus ATCC 25923
[34] = system: Staphylococcus aureus MIU-68A
[35] = system: Pseudomonas aeruginosa 885149
[36] = system: Pasteurella multocida C48-3
[37] = system: Listeria monocytogenes CICC 21533
[38] = system: Salmonella typhimurium SL1344
[39] = system: Bacillus subtilis CICC 24434
[40] = system: Escherichia coli E44813
[41] = system: Staphylococcus epidermidis LY8
[42] = system: Salmonella enterica subsp. enterica serovar Choleraesuis C78-1
[43] = system: Escherichia coli NBRC 3972
[44] = system: Micrococcus luteus NBRC 3333
[45] = system: Aspergillus oryzae NBRC 100959
[46] = system: Staphylococcus epidermidis NBRC 12993
[47] = system: Candida viswanathii NBRC 10321

With `CC[C@H](C)[C@H](NC(=O)[C@H](Cc1ccc(O)cc1)NC(=O)[C@H](Cc1ccc(O)cc1)NC(=O)[C@H](CO)NC(=O)CNC(=O)CNC(=O)[C@H](CC(N)=O)NC(=O)[C@H](CCCN=C(N)N)NC(=O)[C@H](CC(C)C)NC(=O)[C@@H](N)Cc1ccccc1)C(=O)N[C@H](C(=O)N1CCC[C@H]1C(=O)N[C@@H](C)C(=O)N[C@@H](Cc1ccccc1)C(=O)N[C@@H](CCCN=C(N)N)C(=O)NCC(=O)N[C@@H](CCCCN)C(=O)NCC(=O)O)C(C)C` [FLRNGGSYYIVPAFRGKG] the MIC [1] was 10 µM (≈ 20 µg/mL), the MIC [2] was over 10 µM and the MIC [3] was 10 µM (≈ 20 µg/mL). It also gave an MIC [4] of 10 µM (≈ 20 µg/mL), an MIC [5] of 10 µM (≈ 20 µg/mL) and an MIC [6] of over 10 µM. The MIC [7] was 10 µM (≈ 20 µg/mL), the MIC [8] was over 10 µM and the MIC [9] was 10 µM (≈ 20 µg/mL). It also gave an MIC [10] of 10 µM (≈ 20 µg/mL), an MIC [11] of 10 µM (≈ 20 µg/mL) and an MIC [12] of 10 µM (≈ 20 µg/mL). It also gave an MIC [13] of 10 µM (≈ 20 µg/mL) and an MIC [14] of 10 µM (≈ 20 µg/mL).

`CC[C@H](C)[C@H](NC(=O)[C@H](CC(N)=O)NC(=O)[C@H](CCCN=C(N)N)NC(=O)[C@H](CCC(N)=O)NC(=O)[C@H](Cc1c[nH]c2ccccc12)NC(=O)[C@@H](N)Cc1ccccc1)C(=O)N[C@@H](CCCN=C(N)N)C(=O)N[C@@H](CCCCN)C(=O)N[C@H](C(=O)N[C@@H](CCCN=C(N)N)C(N)=O)C(C)C` [FWQRNIRKVR] gave an MIC [15] of at least 178 µM.

In the case of `CC[C@H](C)[C@H](NC(=O)CNC(=O)[C@H](C)NC(=O)[C@H](CCCCN)NC(=O)CNC(=O)[C@H](CCSC)NC(=O)[C@H](CCC(=O)O)NC(=O)[C@H](CCCCN)NC(=O)[C@@H](NC(=O)[C@@H](NC(=O)[C@H](CCCCN)NC(=O)[C@@H](NC(=O)[C@@H](NC(=O)[C@H](CCCCN)NC(=O)[C@H](CC(=O)O)NC(=O)[C@H](CCCCN)NC(=O)[C@H](Cc1cnc[nH]1)NC(=O)[C@H](CCCCN)NC(=O)[C@H](CC(N)=O)NC(=O)[C@H](Cc1c[nH]c2ccccc12)NC(=O)[C@H](Cc1c[nH]c2ccccc12)NC(=O)[C@H](CC(=O)O)NC(=O)[C@H](CCCCN)NC(=O)[C@H](CC(C)C)NC(=O)CN)[C@@H](C)CC)C(C)C)C(C)C)C(C)C)C(=O)N[C@@H](CC(N)=O)C(=O)N[C@@H](C)C(=O)N[C@@H](C)C(N)=O` [GLKDWWNKHKDKIVKVVKEMGKAGINAA], the MIC [16] is reported as 5 µM (≈ 15.8 µg/mL), the MIC [17] is reported as 2.5 µM (≈ 7.91 µg/mL) and the MIC [18] is reported as 5 µM (≈ 15.8 µg/mL). It also gave an MIC [19] of 10 µM (≈ 31.6 µg/mL), an MIC [20] of 5 µM (≈ 15.8 µg/mL) and an MIC [21] of 10 µM (≈ 31.6 µg/mL). The MIC [22] was 5 µM (≈ 15.8 µg/mL), the MIC [23] was 10 µM (≈ 31.6 µg/mL) and the MIC [24] was 10 µM (≈ 31.6 µg/mL). For the same compound, the MIC [25] was 10 µM (≈ 31.6 µg/mL).

With `CC[C@H](C)[C@H](N)C(=O)N[C@@H](C)C(=O)N[C@@H](C)C(=O)N[C@@H](CCC(=O)O)C(=O)N[C@@H](CCCN=C(N)N)C(=O)N[C@@H](CCCN=C(N)N)C(=O)N[C@@H](Cc1ccc(O)cc1)C(=O)N[C@@H](C)C(=O)N[C@H](C(=O)N[C@H](C(=O)N[C@@H](Cc1ccc(O)cc1)C(=O)N[C@@H](CCC(N)=O)C(=O)N[C@@H](C)C(=O)N[C@@H](CCCN=C(N)N)C(=O)N[C@@H](CC(C)C)C(=O)N[C@@H](Cc1c[nH]c2ccccc12)C(=O)N[C@@H](C)C(=O)N[C@@H](Cc1ccccc1)C(=O)O)[C@@H](C)CC)[C@@H](C)O` [IAAERRYATIYQARLWAF] the MIC [26] was 80.4 µM (≈ 177 µg/mL), the MIC [27] was 56.8 µM (≈ 125 µg/mL) and the MIC [28] was 56.8 µM (≈ 125 µg/mL). It also gave an MIC [29] of at least 56.8 µM, an MIC [30] of 56.8 µM (≈ 125 µg/mL) and an MIC [31] of at least 56.8 µM.

`CC[C@H](C)[C@H](NC(=O)[C@@H](N)CCCCN)C(=O)N[C@@H](CCCN=C(N)N)C(=O)N[C@H](C(=O)N[C@@H](CCCN=C(N)N)C(=O)N[C@@H](CC(C)C)C(=O)N[C@@H](CO)C(=O)N[C@@H](C)C(=O)O)C(C)C` [KIRVRLSA] was tested, and the MIC [26] was 136 µM (≈ 128 µg/mL), the MIC [28] was 17 µM (≈ 16 µg/mL) and the MIC [32] was 17 µM (≈ 16 µg/mL). The MIC [33] was 136 µM (≈ 128 µg/mL), the MIC [6] was over 136 µM and the MIC [34] was at least 136 µM. For the same compound, the MIC [30] was 17 µM (≈ 16 µg/mL) and the MIC [35] was at least 34 µM.

Compound `CC[C@H](C)[C@H](NC(=O)[C@@H](NC(=O)[C@@H](N)CCCN=C(N)N)[C@@H](C)CC)C(=O)N[C@@H](CC(=O)O)C(=O)N[C@@H](CCCN=C(N)N)C(=O)N[C@@H](CC(C)C)C(=O)N[C@@H](Cc1c[nH]c2ccccc12)C(=O)N[C@@H](CCCN=C(N)N)C(=O)N[C@H](C(=O)N[C@@H](CCCN=C(N)N)C(=O)N[C@@H](CCCN=C(N)N)C(=O)N1CCC[C@H]1C(=O)N[C@@H](CCC(N)=O)C(=O)N[C@@H](CCCCN)C(=O)N1CCC[C@H]1C(=O)N[C@@H](CCCCN)C(=O)N[C@@H](Cc1ccccc1)C(=O)N[C@H](C(=O)N[C@H](C(=O)N[C@H](C(=O)N[C@@H](Cc1c[nH]c2ccccc12)C(=O)N[C@H](C(=O)N[C@@H](CCCN=C(N)N)C(=O)O)C(C)C)C(C)C)[C@@H](C)O)C(C)C)C(C)C` [RIIDRLWRVRRPQKPKFVTVWVR] has an MIC [36] of 0.519 µM (≈ 1.56 µg/mL), an MIC [37] of at least 41.6 µM and an MIC [38] of 0.519 µM (≈ 1.56 µg/mL). It also gave an MIC [39] of 0.519 µM (≈ 1.56 µg/mL), an MIC [40] of 4.16 µM (≈ 12.5 µg/mL) and an MIC [41] of 8.32 µM (≈ 25 µg/mL). It also gave an MIC [33] of 0.0083 µM (≈ 0.0249 µg/mL) and an MIC [42] of 0.26 µM (≈ 0.78 µg/mL).

Compound `CSCC[C@H](NC(=O)[C@H](CCCCN)NC(=O)[C@@H](NC(=O)[C@H](CCCN=C(N)N)NC(=O)[C@H](CCCCN)NC(=O)[C@H](Cc1c[nH]c2ccccc12)NC(=O)[C@H](Cc1ccccc1)NC(=O)[C@H](CCCN=C(N)N)NC(=O)[C@H](CCCCN)NC(=O)[C@H](CC(C)C)NC(=O)[C@H](CCCCN)NC(=O)[C@@H](N)CCCN=C(N)N)C(C)C)C(=O)O` [RKLKRFWKRVKM] has an MIC [43] of at least 239 µM, an MIC [44] of 29.8 µM (≈ 50 µg/mL) and an MIC [45] of 14.9 µM (≈ 25 µg/mL). The MIC [46] was 14.9 µM (≈ 25 µg/mL) and the MIC [47] was 29.8 µM (≈ 50 µg/mL).
